Consider 22 molecules from patent publication US9376425B2, “Heterocyclic compounds as MDM2 inhibitors for the treatment of cancer” (AMGEN INC., priority 2011, dated 2016).

By IC50 is commonly meant the concentration needed to halve the response being measured. Read a high IC50 as lower potency.

The target in the experiment is T1, human MDM2 (GST-hMDM2 aa 1-188), interaction with biotinylated-p53 (aa 1-83) (Homo sapiens, UniProt Q00987).
T1 construct: Amino acid residues 1-188 of human MDM2 were expressed; made in house; host or cells: Escherichia coli
T1 sequence (Q00987 1-188): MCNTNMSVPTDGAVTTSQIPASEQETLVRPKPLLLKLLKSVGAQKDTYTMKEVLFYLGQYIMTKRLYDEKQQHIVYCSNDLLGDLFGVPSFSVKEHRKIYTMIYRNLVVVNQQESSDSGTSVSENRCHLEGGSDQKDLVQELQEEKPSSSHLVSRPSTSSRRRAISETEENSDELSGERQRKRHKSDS
As to the kind of experiment: Homogenous Time-Resolved Fluorescence Assay (HTRF1 assay), inhibition of HDM2-p53 interaction. The experiment is classed as binding. Particulars: 2.5 nM GST-hMDM2, 5 nM biotinylated-p53, 200 mM KF. On the procedure:
Homogenous Time-Resolved Fluorescence Assay (HTRF1 Assay)
Residues 1-83 of human p53 were expressed as an amino-terminal AviTag™-TrxA-6xHis fusion protein (biotinylated p53) in E. coli. Each protein was purified from cell paste by affinity chromatography.
Specifically, 10 uL of GST-hMDM2 was incubated with 10 ul of diluted compound (various concentrations, serially diluted) in 10% DMSO for 20 minutes at room temperature. 20 uL of biotinylated-p53 was added to the GST-hMDM2+ compound mixture, and then incubated at room temperature for 60 min. 10 uL of detection buffer consisting of SA-XLent, anti-GST cryptate antibody and KF was added to GST-hMDM2, biotinylated-p53 and compound reaction and left at room temperature to reach equilibrium for >4 hrs. The final concentration of DMSO in the reaction was 2%. Time-resolved fluorescence readings were measured on a microplate multilabel reader. Percentage of inhibition was calculated relative to nutlin-3.
`CS(=O)(=O)c1cc(Cl)cc([C@H]2O[C@@H](CC(=O)O)C(=O)N(CC3CC3)[C@@H]2c2ccc(Cl)cc2)c1` (single isomer, unassigned) [Example 111] gave an IC50 of 2.3 µM.
As for `O=C(O)/C=C1\O[C@H](c2cccc(Cl)c2)[C@@H](c2ccc(Cl)cc2)N(CC2CC2)C1=O` (single isomer, unassigned; isomer 1) [Example 51, (Z)-2-((5R,6R)-6-(3-Chlorophenyl)-5-(4-chlorophenyl)-4-(cyclopropylmethyl)-3-oxomorpholin-2-ylidene)acetic acid or (E)-2-((5R,6R)-6-(3-Chlorophenyl)-5-(4-chlorophenyl)-4-(cyclopropylmethyl)-3-oxomorpholin-2-ylidene)acetic acid (Isomer 1)], the 50% inhibitory concentration (IC50) was found to be 0.6 µM.
To `O=C(O)/C=C1/O[C@H](c2cccc(Cl)c2)[C@@H](c2ccc(Cl)cc2)N(CC2CC2)C1=O` (single isomer, unassigned; isomer 2) [Example 52, (E)-2-((5R,6R)-6-(3-Chlorophenyl)-5-(4-chlorophenyl)-4-(cyclopropylmethyl)-3-oxomorpholin-2-ylidene)acetic acid or (Z)-2-((5R,6R)-6-(3-Chlorophenyl)-5-(4-chlorophenyl)-4-(cyclopropylmethyl)-3-oxomorpholin-2-ylidene)acetic acid (Isomer 2)] belongs 19.7 µM; to `O=C(O)C[C@@H]1O[C@H](c2cccc(Cl)c2)[C@@H](c2ccc(Cl)cc2)N(CCC(F)(F)F)C1=O` [Example 11, 2-((2S,5R,6R)-6-(3-Chlorophenyl)-5-(4-chlorophenyl)-3-oxo-4-(3,3,3-trifluoropropyl)morpholin-2-yl)acetic acid], 0.6 µM.
To `O=C(O)C[C@@H]1O[C@H](c2cccc(Cl)c2)[C@@H](c2ccc(Cl)cc2)N(C2CCC2)C1=O` [Example 12, 2-((2S,5R,6R)-6-(3-Chlorophenyl)-5-(4-chlorophenyl)-4-cyclobutyl-3-oxomorpholin-2-yl)acetic acid] belongs 0.9 µM; to `O=C(O)C[C@H]1O[C@H](c2cccc(Cl)c2)[C@@H](c2ccc(Cl)cc2)N(C2CCC2)C1=O` [Example 13, 2-((2R,5R,6R)-6-(3-Chlorophenyl)-5-(4-chlorophenyl)-4-cyclobutyl-3-oxomorpholin-2-yl)acetic acid], 0.7 µM.
`O=C(O)C[C@@H]1O[C@H](c2cccc(Cl)c2)[C@@H](c2ccc(Cl)cc2)N(C2CCCC2)C1=O` [Example 14, 2-((2S,5R,6R)-6-(3-Chlorophenyl)-5-(4-chlorophenyl)-4-cyclopentyl-3-oxomorpholin-2-yl)acetic acid] showed a half-maximal inhibitory concentration (IC50) of 0.3 µM.
With `O=C(O)C[C@H]1O[C@H](c2cccc(Cl)c2)[C@@H](c2ccc(Cl)cc2)N(C2CCCC2)C1=O` [Example 15, 2-((2R,5R,6R)-6-(3-chlorophenyl)-5-(4-chlorophenyl)-4-cyclopentyl-3-oxomorpholin-2-yl)acetic acid], the 50% inhibitory concentration (IC50) worked out at 0.3 µM.
To `O=C(O)C[C@@H]1O[C@H](c2cccc(Cl)c2)[C@@H](c2ccc(Cl)cc2)N(C2CCCCC2)C1=O` [Example 16, 2-((2S,5R,6R)-6-(3-Chlorophenyl)-5-(4-chlorophenyl)-4-cyclohexyl-3-oxomorpholin-2-yl)acetic acid] belongs 0.3 µM.
On to `O=C(O)C[C@H]1O[C@H](c2cccc(Cl)c2)[C@@H](c2ccc(Cl)cc2)N(C2CCCCC2)C1=O` [Example 17, 2-((2R,5R,6R)-6-(3-Chlorophenyl)-5-(4-chlorophenyl)-4-cyclohexyl-3-oxomorpholin-2-yl)acetic acid], for which the IC50 turned out to be 0.2 µM.
Then `C[C@H](C1CCC1)N1C(=O)[C@@H](CC(=O)O)O[C@H](c2cccc(Cl)c2)[C@H]1c1ccc(Cl)cc1` [Example 20, 2-((2R,5R,6R)-6-(3-Chlorophenyl)-5-(4-chlorophenyl)-4-((R)-1-cyclobutylethyl)-3-oxomorpholin-2-yl)acetic acid], with 0.3 µM; and `C[C@H](C1CCC1)N1C(=O)[C@H](CC(=O)O)O[C@H](c2cccc(Cl)c2)[C@H]1c1ccc(Cl)cc1` [Example 21, 2-((2S,5R,6R)-6-(3-Chlorophenyl)-5-(4-chlorophenyl)-4-((R)-1-cyclobutylethyl)-3-oxomorpholin-2-yl)acetic acid], with 0.3 µM.
`C[C@@H](C1CCC1)N1C(=O)[C@@H](CC(=O)O)O[C@H](c2cccc(Cl)c2)[C@H]1c1ccc(Cl)cc1` [Example 22, 2-((2R,5R,6R)-6-(3-Chlorophenyl)-5-(4-chlorophenyl)-4-((S)-1-cyclobutylethyl)-3-oxomorpholin-2-yl)acetic acid] showed a concentration for half-maximal inhibition (IC50) of 0.5 µM.
Then `C[C@@H](C1CCC1)N1C(=O)[C@H](CC(=O)O)O[C@H](c2cccc(Cl)c2)[C@H]1c1ccc(Cl)cc1` [Example 23, 2-((2S,5R,6R)-6-(3-Chlorophenyl)-5-(4-chlorophenyl)-4-((S)-1-cyclobutylethyl)-3-oxomorpholin-2-yl)acetic acid], with 0.3 µM.
To `C[C@H](c1ccccc1)N1C(=O)[C@@H](CC(=O)O)O[C@H](c2cccc(Cl)c2)[C@H]1c1ccc(Cl)cc1` [Example 24, 2-((2R,5R,6R)-6-(3-Chlorophenyl)-5-(4-chlorophenyl)-3-oxo-4-((R)-1-phenylethyl)morpholin-2-yl)acetic acid] belongs 1 µM.
Molecule `C[C@H](c1ccccc1)N1C(=O)[C@H](CC(=O)O)O[C@H](c2cccc(Cl)c2)[C@H]1c1ccc(Cl)cc1` [Example 25, 2-((2S,5R,6R)-6-(3-Chlorophenyl)-5-(4-chlorophenyl)-3-oxo-4-((R)-1-phenylethyl)morpholin-2-yl)acetic acid] registered an IC50 of 0.6 µM.
Then `C[C@@H](c1ccccc1)N1C(=O)[C@@H](CC(=O)O)O[C@H](c2cccc(Cl)c2)[C@H]1c1ccc(Cl)cc1` [Example 26, 2-((2R,5R,6R)-6-(3-Chlorophenyl)-5-(4-chlorophenyl)-3-oxo-4-((S)-1-phenylethyl)morpholin-2-yl)acetic acid], with 1.5 µM; and `C[C@@H](c1ccccc1)N1C(=O)[C@H](CC(=O)O)O[C@H](c2cccc(Cl)c2)[C@H]1c1ccc(Cl)cc1` [Example 27, 2-((2S,5R,6R)-6-(3-Chlorophenyl)-5-(4-chlorophenyl)-3-oxo-4-((S)-1-phenylethyl)morpholin-2-yl)acetic acid], with 0.6 µM; and `O=C(O)C[C@H]1O[C@H](c2cccc(Cl)c2)[C@@H](c2ccc(Cl)cc2)N(CC2CCCC2)C1=O` [Example 28, 2-((2R,5R,6R)-6-(3-Chlorophenyl)-5-(4-chlorophenyl)-4-(cyclopentylmethyl)-3-oxomorpholin-2-yl)acetic acid], with 0.5 µM.
The molecule `O=C(O)C[C@@H]1O[C@H](c2cccc(Cl)c2)[C@@H](c2ccc(Cl)cc2)N(CC2CCCC2)C1=O` [Example 29, 2-((2S,5R,6R)-6-(3-Chlorophenyl)-5-(4-chlorophenyl)-4-(cyclopentylmethyl)-3-oxomorpholin-2-yl)acetic acid] registered an IC50 of 0.3 µM.
`O=C(O)C[C@@H]1O[C@H](c2cccc(Cl)c2)[C@@H](c2ccc(Cl)cc2)NC1=O` [Example 34, 2-((2S,5R,6R)-6-(3-Chlorophenyl)-5-(4-chlorophenyl)-3-oxomorpholin-2-yl)acetic acid] returned an IC50 of 25 µM.
Then `O=C(O)C[C@H]1O[C@H](c2cccc(Cl)c2)[C@@H](c2ccc(Cl)cc2)NC1=O` [Example 35, 2-((2R,5R,6R)-6-(3-Chlorophenyl)-5-(4-chlorophenyl)-3-oxomorpholin-2-yl)acetic acid], with 13 µM.
